Experimental data reported in US20090143392A1, “Methods of Treating Obesity and Metabolic Disorders” (ELBION GMBH, priority 2007, published 2009).

What was measured:
[1] = molecular target: T1, PDE10 from pig striatum (Sus scrofa, UniProt A0A287B941); experiment: Inhibition of PDE10 from pig striatum; type: biochemical; settings: 0.1 μM [3H]-cAMP, 37° C., 30 minutes
T1 construct: "Striatum from male hybrid pigs (150 kg)"
Method: Phosphodiesterase isoenzyme 10 (PDE10) activity was determined in preparations of human recombinant PDE10A and PDE10 from pig striatum, respectively.
Striatum from male hybrid pigs (150 kg) were collected and frozen at −70° C.
At the day of preparation 0.5 g striatum was homogenised in 10 ml 50 mM Tris/Mg-buffer at 4° C. and centrifuged for one hour at 100000 g.
(§1) Nonspecific activity was tested without the enzyme. […] For determination of IC50 values the Hill-plot, 2-parameter-model, was used.
(§2) Phosphodiesterase isoenzyme 10 (PDE10) activity was determined in preparations of rat, pig and guinea pig striatum respectively. Striatum from male Wistar rats (180-200 g), male hybrid pigs (150 kg) and male guinea pigs (CRL (HA), 500 g) respectively were collected and frozen at −70° C.
(§3) For the enzymatic testing of PDE10 activity 0.5 g of the isolated and frozen striatum was homogenised in 10 ml 50 mM Tris/Mg-buffer at 4° C. and centrifuged for one hour at 100000 g.

[2] = molecular target: PDE10 from guinea pig striatum (Cavia porcellus, UniProt A0A286XN47); experiment: Inhibition of PDE10 from guinea pig striatum; type: biochemical; settings: 0.1 μM [3H]-cAMP, 37° C., 30 minutes
Method: as §2, §3, §1

[3] = molecular target: T2, PDE10 from rat striatum (Rattus norvegicus, UniProt Q9QYJ6); experiment: Inhibition of PDE10 from rat striatum; type: biochemical; settings: 0.1 μM [3H]-cAMP, 37° C., 30 minutes
T2 construct: 0.5 g of the isolated and frozen striatum was homogenised; from tissue; host or cells: rat striatum, ion-exchange FPLC fractions with PDE10 activity
T2 sequence (Q9QYJ6 1-794): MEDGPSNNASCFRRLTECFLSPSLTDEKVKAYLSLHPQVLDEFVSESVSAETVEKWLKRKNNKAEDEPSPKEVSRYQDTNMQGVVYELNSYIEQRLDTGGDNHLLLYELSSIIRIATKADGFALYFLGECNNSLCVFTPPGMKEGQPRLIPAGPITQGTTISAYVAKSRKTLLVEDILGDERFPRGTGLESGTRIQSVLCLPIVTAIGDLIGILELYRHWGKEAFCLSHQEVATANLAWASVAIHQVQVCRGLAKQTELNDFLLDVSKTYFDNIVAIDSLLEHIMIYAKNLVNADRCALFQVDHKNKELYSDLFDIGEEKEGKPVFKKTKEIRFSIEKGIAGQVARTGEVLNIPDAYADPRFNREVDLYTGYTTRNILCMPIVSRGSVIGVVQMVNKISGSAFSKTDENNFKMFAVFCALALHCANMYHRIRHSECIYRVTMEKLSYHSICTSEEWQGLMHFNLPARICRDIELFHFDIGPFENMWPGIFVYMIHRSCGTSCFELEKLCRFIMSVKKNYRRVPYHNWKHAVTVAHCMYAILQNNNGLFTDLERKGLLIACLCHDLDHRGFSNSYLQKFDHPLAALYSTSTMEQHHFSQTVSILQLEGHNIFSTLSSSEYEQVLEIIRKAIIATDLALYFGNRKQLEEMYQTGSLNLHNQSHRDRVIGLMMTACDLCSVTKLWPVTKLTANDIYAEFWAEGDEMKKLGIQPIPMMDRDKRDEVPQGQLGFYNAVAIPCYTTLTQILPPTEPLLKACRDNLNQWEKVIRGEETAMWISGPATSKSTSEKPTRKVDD
Method: as §2, §3, §1

[4] = tested on: MK-801-induced psychosis; experiment: MK-801-induced psychosis: hyperactivity and stereotyped sniffing; type: in vivo; settings: female Wistar rats, MK-801 0.1 mg/kg i.p. 10 min before test, compound 30 min prior, recorded 1 h; for dose that significantly reversed MK-801-induced hyperactivity / dose that significantly reversed MK-801-induced stereotyped sniffing: p.o.
Method: Female Wistar rats (Crl: (WI) BR, Charles River, Sulzfeld, Germany) weighing 150 to 180 g were used for the MK-801-induced psychosis. Animals were housed under standard conditions in groups of five on a 12 h light/dark cycle (light on at 0600 h) with ad libitum access to food (Pellets, ssniff M/R 15, Spezialdiät GmbH, Soest/Westfalen) and water.
MK-801 (dizocilpine, MW 337.37) was obtained by Tocris, distributed by Biotrend Chemikalien GmbH, Köln, Germany.
Hydroxyethylcellulose was solved in distilled water.
MK-801 was solved in saline so that an administration volume of 0.5 ml/100 g was reached. The suspensions and solution were placed on a magnetic stirrer before and during dosing procedures.
The behaviour induced by the NMDA antagonist MK-801 is generally accepted as a rat model of psychosis. MK-801 induces stereotyped sniffing, hyperactivity and ataxia in rats after intraperitoneal administration.
Locomotor activity of the rats was recorded by the MotiTest Apparatus (TSE, Bad Homburg, Germany). The test area consisted of a squared arena (45×45 cm) with protective plexiglass walls (20 cm of height) where rats could freely move. Horizontal movements were recorded by 32 infrared photocells arranged along the bottom of each wall of the arena. The activity [sec] was measured by the computer program “ActiMot” (TSE, Bad Homburg, Germany).
Stereotyped sniffing was scored by the experimenter every five minutes for one hour (12 intervals) according to the method described by Andine et al. (1999). The scores of the 12 intervals were summed up at the end of the recording time.
The day of experiment the female rats were placed in the laboratory and received the test compound or vehicle at the appropriate time prior to test. MK-801 0.1 mg/kg was intraperitoneally administered 10 minutes prior to test.
At the beginning of the test the rats were placed in the centre of the squared arena of the MotiTest apparatus. Behaviour of the rats was recorded for one hour. After each run animals were removed and the boxes thoroughly cleaned and dried.
Results were analysed by one way analysis of variance (ANOVA). Tukey test was used for individual comparison. P<0.05 was regarded as significant.

[5] = tested on: haloperidol-induced catalepsy; settings: rats; cited from earlier work
[6] = tested on: apomorphine-induced stereotypies; settings: rats; cited from earlier work
[7] = tested on: dopamine concentration in rat brain; settings: cited from earlier work

Sequence of PDE10 from guinea pig striatum (A0A286XN47 1-773): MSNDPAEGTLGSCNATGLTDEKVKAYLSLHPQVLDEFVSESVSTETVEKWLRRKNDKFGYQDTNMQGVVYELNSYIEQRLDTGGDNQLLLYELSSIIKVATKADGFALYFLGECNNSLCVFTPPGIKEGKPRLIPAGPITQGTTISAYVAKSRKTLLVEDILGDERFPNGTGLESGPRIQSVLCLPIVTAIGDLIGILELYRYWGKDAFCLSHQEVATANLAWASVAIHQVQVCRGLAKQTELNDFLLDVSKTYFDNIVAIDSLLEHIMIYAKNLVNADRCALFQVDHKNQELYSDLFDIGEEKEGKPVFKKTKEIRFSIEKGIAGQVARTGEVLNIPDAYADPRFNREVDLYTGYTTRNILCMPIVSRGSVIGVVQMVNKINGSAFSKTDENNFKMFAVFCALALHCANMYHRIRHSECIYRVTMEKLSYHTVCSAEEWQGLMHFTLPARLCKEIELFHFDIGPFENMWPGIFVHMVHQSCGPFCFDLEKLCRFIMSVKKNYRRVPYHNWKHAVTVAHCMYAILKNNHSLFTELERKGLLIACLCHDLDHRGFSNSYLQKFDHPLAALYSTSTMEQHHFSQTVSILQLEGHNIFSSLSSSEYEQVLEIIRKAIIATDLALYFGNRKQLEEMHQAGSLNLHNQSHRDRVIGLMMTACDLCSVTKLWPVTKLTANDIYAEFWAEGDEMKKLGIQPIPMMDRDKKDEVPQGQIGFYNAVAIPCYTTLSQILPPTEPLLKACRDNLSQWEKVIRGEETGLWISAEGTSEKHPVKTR

3,4-dimethyl-8-(2-propyl-4-methyl-imidazol-1-yl)-methoxy-1-propyl-imidazo[1,5-a]pyrido[3,2-e]pyrazine [Example 58a]
IC50 [1]: 2 nM
IC50 [2]: 4 nM

8-methoxy-4-methoxycarbonylamino-3-methyl-1-propyl-imidazo[1,5-a]pyrido[3,2-e]pyrazine [Example 62a]
IC50 [3]: 35 nM
IC50 [1]: 6 nM
IC50 [2]: 26 nM
dose that significantly reversed MK-801-induced hyperactivity [4]: 5 mg/kg
dose that significantly reversed MK-801-induced stereotyped sniffing [4]: 5 mg/kg

COc1ccc(Cc2nccc3cc(OC)c(OC)cc23)cc1OC [Papaverine]
effect on haloperidol-induced catalepsy [5]: increases haloperidol-induced catalepsy
effect on apomorphine-induced stereotypies [6]: reduces apomorphine-induced stereotypies
effect on dopamine concentration in rat brain [7]: reducing dopamine concentration in rat brain

CCCc1nc(C)c2n1-c1nc(OC)ccc1NC2 [Example 91a, 8-methoxy-3-methyl-1-propyl-4,5-dihydro-imidazo[1,5-a]pyrido[3,2-e]pyrazine]
IC50 [3]: 159 nM
IC50 [1]: 108 nM
melting point: 157 to 160 °C
dose that significantly reduced MK-801-induced hyperactivity ([4]; i.p.): ≥ 15 mg/kg
dose that significantly reduced MK-801-induced stereotyped sniffing ([4]; i.p.): ≥ 15 mg/kg

4-chloro-8-methoxy-3-methyl-1-propyl-imidazo[1,5-a]pyrido[3,2-e]pyrazine [Intermediate A1]
IC50 [3]: 8 nM
IC50 [1]: 4 nM

4-amino-3-methyl-1-propyl-imidazo[1,5-a]pyrido[3,2-e]pyrazine [Example 4b]
IC50 [3]: 57 nM
IC50 [1]: 27 nM

8-methoxy-3-methyl-1-propyl-imidazo[1,5-a]pyrido[3,2-e]pyrazine [Example 35a]
IC50 [3]: 61 nM
IC50 [1]: 40 nM
dose that significantly reversed MK-801-induced hyperactivity [4]: 30 mg/kg
dose that significantly reversed MK-801-induced stereotyped sniffing [4]: ≥ 30 mg/kg

CCCc1nc(C)c2n1-c1nc(OC)ccc1N(C(C)=O)C2 [Example 95a, 5-acetyl-8-methoxy-3-methyl-1-propyl-4,5-dihydro-imidazo[1,5-a]pyrido[3,2-e]pyrazine]
IC50 [3]: 335 nM
IC50 [1]: 222 nM
dose that significantly reversed MK-801-induced hyperactivity [4]: 30 mg/kg
dose that significantly reversed MK-801-induced stereotyped sniffing [4]: 30 mg/kg

8-methoxy-3-methyl-4-methylsulfonylamino-1-propyl-imidazo[1,5-a]pyrido[3,2-e]pyrazine [Example 69a]
IC50 [3]: 11 nM
IC50 [1]: 5 nM
IC50 [2]: 11 nM

4-(N-acetyl-amino)-1-ethyl-8-methoxy-3-methyl-imidazo[1,5-a]pyrido[3,2-e]pyrazine [Example 40b]
IC50 [3]: 220 nM

4-ethoxycarbonylamino-8-methoxy-3-methyl-1-propyl-imidazo[1,5-a]pyrido[3,2-e]pyrazine [Example 63a]
IC50 [3]: 563 nM
IC50 [1]: 189 nM

4-(N-formyl-amino)-8-methoxy-3-methyl-1-propyl-imidazo[1,5-a]pyrido[3,2-e]pyrazine [Example 37b]
IC50 [3]: 50 nM
IC50 [1]: 29 nM

CCc1nc(C)c2c(Cl)nc3cccnc3n12 [Intermediate A11]
IC50 [3]: 171 nM
IC50 [1]: 97 nM
melting point: 117 to 120 °C

CCCc1nc(C)c2c(N(S(C)(=O)=O)S(C)(=O)=O)nc3ccc(OC)nc3n12 [Example 70a, 4-(N,N-bis-methylsulfonyl)-amino-8-methoxy-3-methyl-1-propyl-imidazo[1,5-a]pyrido[3,2-e]pyrazine]
IC50 [3]: 72 nM

4-(N-acetyl-amino)-8-methoxy-3-methyl-1-phenyl-imidazo[1,5-a]pyrido[3,2-e]pyrazine [Example 42b]
IC50 [3]: 95 nM
IC50 [1]: 41 nM

3,4-dimethyl-8-methoxy-1-phenyl-imidazo[1,5-a]pyrido[3,2-e]pyrazine [Example 47a]
IC50 [1]: 6 nM
IC50 [2]: 15 nM

1-ethyl-4-(N-formyl-amino)-8-methoxy-3-methyl-imidazo[1,5-a]pyrido[3,2-e]pyrazine [Example 36b]
IC50 [3]: 241 nM
IC50 [1]: 80 nM

8-methoxy-3-methyl-4-(N-propionyl-amino)-1-propyl-imidazo[1,5-a]pyrido[3,2-e]pyrazine [Example 43b]
IC50 [3]: 2410 nM
IC50 [1]: 896 nM

4-cyano-8-methoxy-3-methyl-1-propyl-imidazo[1,5-a]pyrido[3,2-e]pyrazine [Example 29a]
IC50 [2]: 18 nM
dose that significantly reversed MK-801-induced stereotyped sniffing [4]: ≥ 5 mg/kg

4-cyano-8-methoxy-3-methyl-1-ethyl-imidazo[1,5-a]pyrido[3,2-e]pyrazine [Example 30a]
IC50 [1]: 20 nM
IC50 [2]: 51 nM
dose that significantly reversed MK-801-induced hyperactivity [4]: ≥ 10 mg/kg
dose that significantly reversed MK-801-induced stereotyped sniffing [4]: ≥ 10 mg/kg

3,4-dimethyl-8-(piperidin-1-yl)-methoxy-1-propyl-imidazo[1,5-a]pyrido[3,2-e]pyrazine [Example 55a]
IC50 [1]: 14 nM
dose that significantly reversed MK-801-induced hyperactivity [4]: 30 mg/kg
dose that significantly reversed MK-801-induced stereotyped sniffing [4]: 30 mg/kg

4-amino-8-methoxy-3-methyl-1-phenyl-imidazo[1,5-a]pyrido[3,2-e]pyrazine [Example 10b]
IC50 [3]: 5 nM
IC50 [1]: 3 nM
